Reference: paper PMC3070735, “Uremic Toxins Inhibit Transport by Breast Cancer Resistance Protein and Multidrug Resistance Protein 4 at Clinically Relevant Concentrations” (PLoS ONE, 2011)
Where a name gives a salt, the structure may show the parent alone. Read-outs that look alike come from different tables or passages of the source. Marks after values point to notes of the source that are not given here.

Columns and labels:
BCRP = target: T1, BCRP (Homo sapiens, UniProt Q9UNQ0); assay: Membrane vesicle transport inhibition assay: BCRP-mediated [3H]-E1S uptake; conditions: for Decrease of BCRP-mediated transport compared to control: toxin 1 mM; for Mode of inhibition of BCRP-mediated transport: Dixon plot, three [3H]-E1S concentrations; for IC50: IC50, [3H]-E1S uptake into BCRP membrane vesicles, 1 min, 37°C, mean ± SEM of three experiments; for IC20 at 1 min: human, membrane vesicles from HEK293 cells overexpressing BCRP, pH 7, probe [3H]-estrone sulfate ([3H]-E1S)
T1 sequence (Q9UNQ0 1-655): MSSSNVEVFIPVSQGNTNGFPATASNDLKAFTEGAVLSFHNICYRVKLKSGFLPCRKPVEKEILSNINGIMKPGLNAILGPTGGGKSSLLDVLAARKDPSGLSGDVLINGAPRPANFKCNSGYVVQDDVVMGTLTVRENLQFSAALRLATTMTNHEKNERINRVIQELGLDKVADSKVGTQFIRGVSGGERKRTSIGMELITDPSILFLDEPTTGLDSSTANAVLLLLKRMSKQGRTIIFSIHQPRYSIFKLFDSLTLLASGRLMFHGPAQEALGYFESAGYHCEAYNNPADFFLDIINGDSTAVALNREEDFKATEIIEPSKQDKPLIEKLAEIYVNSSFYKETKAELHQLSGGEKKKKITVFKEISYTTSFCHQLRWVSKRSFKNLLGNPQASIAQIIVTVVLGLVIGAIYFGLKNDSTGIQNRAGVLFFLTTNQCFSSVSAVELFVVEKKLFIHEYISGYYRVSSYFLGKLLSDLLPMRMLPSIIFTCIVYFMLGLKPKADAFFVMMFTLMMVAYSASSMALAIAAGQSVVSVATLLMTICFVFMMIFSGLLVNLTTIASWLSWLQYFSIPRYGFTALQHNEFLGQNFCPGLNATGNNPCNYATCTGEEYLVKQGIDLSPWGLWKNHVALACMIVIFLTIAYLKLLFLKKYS
Protocol: Human embryonic kidney (HEK293; purchased at American Type Culture Collection, Manassas, VA) cells were cultured in Dulbecco's modified Eagle's medium (Invitrogen life sciences, Breda, the Netherlands) containing 10% (v/v) fetal calf serum (MP Biomedicals, Uden, the Netherlands) at 37°C in a 5% (v/v) CO2 atmosphere. To functionally overexpress MRP4 and BCRP, HEK293 cells were transduced with baculoviruses of human MRP4, BCRP or enhanced yellow fluorescent protein (EYFP), generated via the Bac-to-Bac system (Invitrogen) as previously described. To transduce HEK293 cells, they were cultured in 500 cm^2 flasks until 70% confluence. Subsequently, medium was removed and 10 ml of virus and 25 ml of medium were added and incubated for 30 min at 37°C. Next, 50 ml of medium was added and after 2 h of transduction 5 mM sodium butyrate was added.
Three days after transduction, cells were harvested and pelleted by centrifugation (30 min at 4,000 x g). Afterwards, the cells were resuspended in ice-cold hypotonic TS buffer (0.5 mM sodium phosphate, 0.1 mM EDTA, pH 7.0) containing protease inhibitors (100 µM phenylmethylsulfonyl fluoride, 5 µg/ml aprotinin, 5 µg/ml leupeptin, 1 µg/ml pepstatin and 1 µg/ml E-64) and shaken for 30 min at 4°C. Cells were then centrifuged at 100,000 x g for 30 min at 4°C. Subsequently, pellet was resuspended in ice-cold isotonic buffer (10 mM Tris-HEPES and 250 mM sucrose, pH 7.4, adjusted with HEPES) supplemented with protease inhibitors and homogenized using a tight fitting Dounce homogenizer followed by centrifugation (1,000 x g, 20 min, 4°C). Afterwards, supernatant was centrifuged at 100,000 x g for 1 h at 4°C. The resulting pellet was resuspended in isotonic buffer and passed through a 27-gauge needle 25 times to obtain crude membrane vesicles. The protein content of samples was determined using the Bio-Rad protein assay (Veenendaal, the Netherlands), according to manufacturers recommendations. Vesicles were frozen in liquid nitrogen and stored at −80°C until use. The orientation of the membrane vesicles was not determined, since ATP-dependent uptake occurs only in inside-out vesicles.
A rapid filtration technique was used to study the uptake of [^3H]-MTX and [^3H]-E1S into MRP4 or BCRP membrane vesicles, as previously described. In short, 25 µl of TS buffer containing 4 mM ATP, 10 mM MgCl2 and radiolabeled substrate was added to 5 µl of the membrane vesicles (1.5 mg/ml). The transport assay was performed in the absence or presence of various concentrations of uremic toxins to evaluate the inhibitory effects of these compounds on MRP4-mediated [^3H]-MTX uptake and BCRP-mediated [^3H]-E1S uptake. […] Uptake was stopped by placing the samples on ice and the addition of 150 µl ice cold TS buffer. Subsequently, the samples were transferred to a 96 well filter plate (Millipore, Etten-leur, the Netherlands) pre-incubated with TS buffer and filtered using a Multiscreen HTS-Vacuum Manifold filtration device (Millipore). Afterwards, 2 ml of scintillation liquid was added to each filter and radioactivity was determined using liquid scintillation counting. As negative controls ATP was substituted for AMP and EYFP-membrane vesicles were used. Each experiment was performed in triplicates.
Statistics were performed using GraphPad Prism 5.02 via an unpaired t test or a Kruskal-Wallis test followed by a Dunn's Multiple Comparison test. Differences between groups were considered to be statistically significant when p<0.05. The mean IC50 and IC20 values were calculated from the inhibition curves used for the Dixon analysis and to determine the inhibition constant (Ki) from the Dixon plots. Transport inhibition studies were performed in triplicate and repeated at least three times.

[1] = plasma of CKD patients, cited from earlier work
[2] = [3H]-E1S uptake, result in words

Compound | Effect on transport mediated by BCRP (BCRP; [2]) | Decrease of BCRP-mediated transport compared to control (BCRP; [3H]-E1S uptake) [%] | Ki (BCRP) [µM] | IC50 (BCRP) [µM] | IC20 at 1 min (BCRP) [µM] | also measured
O=C(O)C(=O)O [oxalate] | did not alter transport | ≤ 10 |  |  |  | 
Cc1ccc(S(=O)(=O)O)cc1 [p-toluenesulfonic acid, reference compound] | did not alter transport | ≤ 10 |  |  |  | 
NCCCCN [putrescine] | did not alter transport | ≤ 10 |  |  |  | 
O=C(O)Cc1ccccc1 [phenylacetic acid] | only reduced [^3H]-MTX uptake by MRP4 |  |  |  |  | Cu, highest median plasma concentration [1]: 3.5 mM; Cu, highest mean/median uremic concentration ([1]; obtained from literature): 3490 ^a µM
O=C(O)Cc1c[nH]c2ccccc12 [indole-3-acetic acid] | only reduced [^3H]-MTX uptake by MRP4 |  |  |  |  | 
O=C(O)CNC(=O)c1ccccc1 [hippuric acid] |  |  | 4000 ± 100 | 3670 ± 170 | 690 ± 70 | Cu, highest mean/median uremic concentration ([1]; ref www.uremic-toxins.org [19]): 1380 µM; Cu, highest median uremic concentration ([1]; ref www.uremic-toxins.org [19]): 1.4 mM; Cmax ([1]; ref www.uremic-toxins.org [19], read-out: Cmax, maximal uremic concentration): 2600 µM; Extent of inhibition of [3H]-E1S uptake by BCRP (BCRP; 0.1 mM to 3.5 mM, result in words): completely blocked; Mode of inhibition of BCRP-mediated transport (BCRP): non-competitive
O=C(O)c1cc(=O)c2ccccc2[nH]1 [kynurenic acid] |  |  | 50 | 40 ± 1 | 10 ± 1 | 
Cc1ccc(O)cc1 [p-cresol] |  | ≤ 10 |  |  |  | Effect on transport mediated by BCRP (BCRP): did not alter transport
O=C(O)c1cccnc1C(=O)O [quinolinic acid] | did not alter transport | ≤ 10 |  |  |  | 
O=S(=O)(O)Oc1c[nH]c2ccccc12 [indoxyl sulfate] |  |  | 500 | 770 ± 120 | 390 ± 30 | Cu, highest mean/median uremic concentration ([1]; ref www.uremic-toxins.org [19]): 211 µM; Mode of inhibition of BCRP-mediated transport (BCRP): non-competitive
